Data: patent US9481900B2, “Polypeptides having oxidoreductase activity and their uses” (Purac Biochem B.V., priority 2009, dated 2016)
In brackets after ≈: the same amount, converted by molar mass.

Assays:
[1] = Solubility of FDCA in water; type: physicochemical
[2] = HMF oxidoreductase assay: FDCA formation in cell extract of P. putida_pJT'hmfH; type: biochemical
Description: Cell extracts of wildtype C. basilensis HMF14 or P. putida S12 transformants expressing HMF oxidoreductase were prepared from 50-ml late exponential growth phase cultures using MM supplemented with either 12 mM succinate (C. basilensis HMF14, OD600≈1.5) or 20 mM glucose (P. putida S12, OD600≈4). The cultures were harvested by centrifugation and resuspended in 3 ml of assay buffer. Cells were disrupted by sonication, using either a Branson sonifier (micro tip at pulse mode, output set at 3 and percentage duty cycle set to 40%; 3 cycles of sonication: 45 s of pulsing and 15 s pause) or a Sonics Vibra-Cell (Sonics&Materials, USA) (5 mm tapered microtip; pulse mode set to 1 min (0.5 s pulse, 2 sec pause). After sonication, debris was removed by centrifuging at 8228×g for 3 min at 4° C. The supernatant was desalted using a PD10 gel filtration column (GE healthcare) and used as cell extract for HMF oxidoreductase assays. Protein concentration was measured using Bradford reagent (Sigma-Aldrich).
HMF oxidoreductase assays were performed in cell extracts of wildtype C. basilensis HMF14 or P. putida S12 transformants expressing the C. basilensis HMF14 HMF oxidoreductase. As a negative control, wildtype P. putida S12 or a C. basilensis HMF14 mutant was used that carried a transposon insertion in the hmfH gene. […]

Question: Which results are given for `O=C(O)c1ccc(C(=O)O)o1` [FDCA, 2,5-Furan-dicarboxylic acid]?
Answer: solubility ([1]; aqueous buffer, pH 1.0): ~1500 µg/mL (≈ 9.61 mM); solubility ([1]; pH 0.5, aqueous buffer): ~400 µg/mL (≈ 2.56 mM)

B1: HmfH: 62 317 Da FAD-dependent GMC-family oxidoreductase of Cupriavidus basilensis HMF14, encoded by hmfH (protein, listed as Cupriavidus basilensis)
chain: MDTPRERFDYVIVGGGSAGCVLANRLSQDPAIRVALIEAGVDTPPDAVPAEILDSYPMPLFFGDRYIWPSLQARAVAGGRSKVYEQGRVMGGGSSINVQAANRGLPRDYDEWAASGASGWSWQDVLPYFRHLERDVDYGNSPLHGSHGPVPIRRILPQAWPPFCTEFAHAMGRSGLSALADQNAEFGDGWFPAAFSNLDDKRVSTAIAYLDADTRRRANLRIYAETTVRKLVVSGREARGVIAMRADGSRLALDAGEVIVSAGALQSPAILMRAGIGDAGALQALGIEVVADRPGVGRNLQDHPALTFCQFLAPQYRMPLSRRRASMTAARFSSGVPGGEASDMYLSSSTRAGWHALGNRLGLFFLWCNRPFSRGQVSLAGAQPDVPPMVELNLLDDERDLRRMVAGVRKLVQIVGASALHQHPGDFFPATFSPRVKALSRVSRGNVLLTELLGAVLDVSGPLRRSLIARFVTGGANLASLLTDESALEGFVRQSVFGVWHASGTCRMGAHADRSAVTDAAGRVHDVGRLRVIDASLMPRLPTANTNIPTIMLAEKIADTMQAERRAVRPASSEVAHPS
Question: For B1, which “substrate oxidation by the enzyme” value [2] is on record?
Answer: ability to oxidize HMF-acid to furan-dicarboxylic acid (FDCA)
